Assay results as given in US11559497B2 (Guangzhou Dazhou Biomedicine Ltd., priority 2020, dated 2023).

Assays:
[1] = Reported human pharmacokinetics of ketamine by IV infusion, oral or intranasal route; settings: 40-min IV infusion of 35 mg of ketamine
Source text: There has been very limited data on monitoring HNK pharmacokinetics in humans in a robust approach. […] Also HNK was shown preclinically to have lower potential of AEs.

[2] = Phase 1 clinical study: plasma pharmacokinetics after ketamine transdermal patch; settings: for plasma concentration: 28 mg dose; for AUC: AUCall; for AUC(0-inf): AUCinf
Protocol: Enrollment was planned to achieve participation of up to 14 adult subjects with MDD in the 3 stages of the protocol. Subjects were to be screened within 4 weeks of enrollment. Eligible subjects who provided written consent were to be enrolled into Stage 1 of the study. In Stage 1 of the study, subjects were to receive the low-dose transdermal patch. The amount of residual drug was to be measured and PK analysis conducted for each subject to inform the subsequent dosing. In Stage 2, after a 2 to 4 week washout period, a placebo patch was to be administered. A “deception” protocol was used in order to ensure the subjects remained blinded to the treatment. Placebo administration was followed by a 1 week washout period, after which subjects were to receive the high-dose transdermal patch in Stage 3. The overall study duration from screening until the end of Stage 3 was approximately 60 days, including both inpatient and outpatient portions of the study. The general study design is illustrated in FIG. 3.
The patch was predicted to deliver systemically approximately 20 mg.
For Stage 1, blood samples were collected pre-patch application, and at 2, 6, 12, 24, 28, 32, 48, 96, and 168 hours post-patch application.
Blood samples were collected in tubes containing sodium heparin and stored on ice or room temperature until centrifuged under refrigeration or room temperature for at least 10 minutes at 3,000 revolutions per minute. After centrifugation, plasma was removed, divided into 2 aliquots of approximately 0.6 mL each, frozen, and stored at or below −20° C. Blood was processed to plasma and frozen within 1 hour of collection. Processed frozen plasma samples were transferred on dry ice to the analytical laboratory and were stored at or below −20° C. until bioanalysis was performed.
A non-compartmental analysis (NCA) was used to calculate PK parameters using Phoenix® WinNonlin® 6.4 or later (Certara, USA).

[3] = Prediction of delivered dose and human PK from in vitro permeability and PK linearity; settings: predicted
[4] = tested on: NMDA receptor; settings: in vitro; Shimoyama et al., 1999; cited from earlier work

For `NC1(c2ccccc2Cl)CCCC(O)C1=O` (stereo not drawn) [Hydroxynorketamine, hydroxynorketamine], the “ratio of AUC of HNK/Ketamine” value ([1]; MDD patients, digitized from Zarate et al.) was 0.522, the “ratio of Cmax of HNK/ketamine” value ([1]; digitized from Zarate et al.) was “about 0.113” and the plasma concentration ([2]; 48 hours post application of tested ketamine patch) was “about 10 ng/ml”. For the same molecule, the plasma concentration ([2]; 72 hours post application of tested ketamine patch) was “about 6 ng/ml”, the AUCall ([2]; Stage 1 (60 cm^2 patch, 24 h, low-dose), Mean) was 438 ng·h/mL and the AUCall ([2]; Stage 1 (60 cm^2 patch, 24 h, low-dose), Median) was 364 ng·h/mL. It also gave an AUCinf ([2]; Stage 1, Mean) of 666 ng·h/mL, a Cmax ([2]; Stage 1, Mean) of 12.3 ng/mL and an Extrap ([2]; Stage 1, Mean) of 10%. For the same molecule, the T1/2 ([2]; Stage 1, Mean) was 19.3 h, the Tmax ([2]; Stage 1, Mean) was 33.0 h and the AUCinf ([2]; Stage 1, Median) was 573 ng·h/mL. For the same molecule, the Cmax ([2]; Stage 1, Median) was 12.6 ng/mL, the Extrap ([2]; Stage 1, Median) was 6% and the T1/2 ([2]; Stage 1, Median) was 17.9 h. The Tmax ([2]; Stage 1, Median) was 32.0 h, the AUCall ([2]; Stage 3 (20 and 60 cm^2 patches, high-dose), Mean) was 549 ng·h/mL and the AUCall ([2]; Stage 3 (20 and 60 cm^2 patches, high-dose), Median) was 488 ng·h/mL. The AUCinf ([2]; Stage 3, Mean) was 839 ng·h/mL, the Cmax ([2]; Stage 3, Mean) was 15.7 ng/mL and the Extrap ([2]; Stage 3, Mean) was 15%. The T1/2 ([2]; Stage 3, Mean) was 20.2 h, the Tmax ([2]; Stage 3, Mean) was 33.5 h and the AUCinf ([2]; Stage 3, Median) was 660 ng·h/mL. For the same molecule, the Cmax ([2]; Stage 3, Median) was 12.8 ng/mL, the Extrap ([2]; Stage 3, Median) was 10% and the T1/2 ([2]; Stage 3, Median) was 19.5 h. The Tmax ([2]; Stage 3, Median) was 29.9 h, the “ratio of AUC of HNK/Ketamine” value ([2]; tested ketamine patch) was 2.23 and the “ratio of Cmax of HNK/ketamine” value ([2]; tested ketamine patch) was 1.19. The “Cmax resulting from about 100 mg dose by ketamine transdermal delivery device” value [3] was “around 30 ng/mL”.
For `NC1(c2ccccc2Cl)CCCCC1=O` (stereo not drawn) [Norketamine, norketamine], the “ratio of AUC of NK/Ketamine” value ([1]; digitized literature data) was 0.989, the “ratio of Cmax of NK/ketamine” value ([1]; digitized literature data) was “about 0.362” and the Extrap ([2]; Stage 1, Mean) was 12%. The Extrap ([2]; Stage 1, Median) was 11%, the Extrap ([2]; Stage 3, Mean) was 7% and the Extrap ([2]; Stage 3, Median) was 7%. The AUC ([2]; human, plasma, other: transdermal patch, 20 mg, Stage 1 (60 cm^2 patch, 24 h, low-dose), Mean) was 377 ng·h/mL, the AUC ([2]; human, plasma, other: transdermal patch, 20 mg, Stage 1 (60 cm^2 patch, 24 h, low-dose), Median) was 328 ng·h/mL and the AUC(0-inf) ([2]; human, plasma, other: transdermal patch, 20 mg, Stage 1, Mean) was 420 ng·h/mL. For the same molecule, the AUC(0-inf) ([2]; human, plasma, other: transdermal patch, 20 mg, Stage 1, Median) was 367 ng·h/mL, the Cmax ([2]; human, plasma, other: transdermal patch, 20 mg, Cmax, Stage 1, Mean) was 11.1 ng/mL and the Cmax ([2]; human, plasma, other: transdermal patch, 20 mg, Cmax, Stage 1, Median) was 9.85 ng/mL. The half-life ([2]; human, plasma, other: transdermal patch, 20 mg, T1/2, Stage 1, Mean) was 19.4 h, the half-life ([2]; human, plasma, other: transdermal patch, 20 mg, T1/2, Stage 1, Median) was 21 h and the Tmax ([2]; human, plasma, other: transdermal patch, 20 mg, Tmax, Stage 1, Mean) was 28.4 h. It also gave a Tmax ([2]; human, plasma, other: transdermal patch, 20 mg, Tmax, Stage 1, Median) of 28 h, an AUC ([2]; human, plasma, other: transdermal patch, 40 mg, Stage 3 (20 and 60 cm^2 patches, high-dose), Mean) of 486 ng·h/mL and an AUC ([2]; human, plasma, other: transdermal patch, 40 mg, Stage 3 (20 and 60 cm^2 patches, high-dose), Median) of 387 ng·h/mL. For the same molecule, the AUC(0-inf) ([2]; human, plasma, other: transdermal patch, 40 mg, Stage 3, Mean) was 624 ng·h/mL, the AUC(0-inf) ([2]; human, plasma, other: transdermal patch, 40 mg, Stage 3, Median) was 500 ng·h/mL and the Cmax ([2]; human, plasma, other: transdermal patch, 40 mg, Cmax, Stage 3, Mean) was 13.4 ng/mL. For the same molecule, the Cmax ([2]; human, plasma, other: transdermal patch, 40 mg, Cmax, Stage 3, Median) was 10.3 ng/mL, the half-life ([2]; human, plasma, other: transdermal patch, 40 mg, T1/2, Stage 3, Mean) was 17.9 h and the half-life ([2]; human, plasma, other: transdermal patch, 40 mg, T1/2, Stage 3, Median) was 19.2 h. The Tmax ([2]; human, plasma, other: transdermal patch, 40 mg, Tmax, Stage 3, Mean) was 31.1 h, the Tmax ([2]; human, plasma, other: transdermal patch, 40 mg, Tmax, Stage 3, Median) was 28 h and the “ratio of AUC of NK/Ketamine” value ([2]; tested ketamine patch) was 1.40. For the same molecule, the “ratio of Cmax of NK/ketamine” value ([2]; tested ketamine patch) was 1.08.
For `CN[C@]1(c2ccccc2Cl)CCCCC1=O` [S-ketamine], the “greater affinity than R-ketamine for NMDA receptor binding” value [4] is listed as about 4 fold.
